ChEMBL document CHEMBL1142232, “Inhibition of spinal microglial cathepsin S for the reversal of neuropathic pain” (Proc Natl Acad Sci U S A, 2007)
Activity calls are given as the source filed them. Where a SMILES comes first, the peptide text is derived from it. [ ]: non-standard residue; d: D form. Oic = O=C(O)[C@@H]1C[C@@H]2CCCC[C@@H]2N1; Hyp = O=C(O)[C@@H]1C[C@@H](O)CN1; dTic = O=C(O)[C@H]1Cc2ccccc2CN1; 2Thi = N[C@@H](Cc1cccs1)C(=O)O

Assays:
Rattus norvegicus [1] = assay: Antinociceptive activity in intrathecally dosed Wistar rat partial ligation of sciatic nerve 3-day neuropathic pain model assessed as alteration of mechanical allodynia at 50 nmol; assay type: functional, organism-based
Rattus norvegicus [2] = assay: Analgesic activity in intrathecally dosed Wistar rat partial ligation of sciatic nerve neuropathic pain model assessed as reduction of mechanical hyperalgesia at 50 nmol after 14 days; assay type: functional, organism-based
Rattus norvegicus [3] = assay: Analgesic activity in intrathecally dosed Wistar rat partial ligation of sciatic nerve neuropathic pain model assessed as attenuation of allodynia at 50 nmol after 7 days; assay type: functional, organism-based
Rattus norvegicus [4] = assay: Analgesic activity in intrathecally dosed Wistar rat partial ligation of sciatic nerve neuropathic pain model assessed as attenuation of allodynia at 50 nmol after 14 days; assay type: functional, organism-based
Rattus norvegicus [5] = assay: Analgesic activity in intrathecally dosed Wistar rat partial ligation of sciatic nerve neuropathic pain model assessed as reduction of mechanical hyperalgesia at 10 nmol after 14 days; assay type: functional, organism-based
Rattus norvegicus [6] = assay: Effect on contralateral mechanical thresholds in intrathecally dosed Wistar rat partial ligation of sciatic nerve neuropathic pain model; assay type: functional, organism-based
Rattus norvegicus [7] = species: Rattus norvegicus; assay: Toxicity in Wistar rat assessed as effect on motor behavior by rotarod test; assay type: organism-based; conditions: in vivo
Rattus norvegicus [8] = species: Rattus norvegicus; assay: Reduction of microglial activation in Wistar rat partial ligation of sciatic nerve neuropathic pain model at 30 nmol; assay type: functional, organism-based
Rattus norvegicus [9] = species: Rattus norvegicus; assay: Analgesic activity in Wistar rat partial ligation of sciatic nerve model of neuropathic pain assessed as reversal of allodynia at 30 nmol after 3 to 5 days; assay type: functional, organism-based
Rattus norvegicus [10] = species: Rattus norvegicus; assay: Analgesic activity in Wistar rat partial ligation of sciatic nerve model of neuropathic pain assessed as reversal of allodynia at 30 nmol after 7 days; assay type: functional, organism-based
Rattus norvegicus [11] = species: Rattus norvegicus; assay: Effect on sarcosine-induced hyperalgesia in Wistar rat; assay type: functional, organism-based
Rattus norvegicus [12] = assay: Inhibition of rat recombinant cathepsin S-induced hyperalgesia in naive Wistar rat at 50 nmol administered 30 mins before cathepsin S challenge; assay type: functional, organism-based
Rattus norvegicus [13] = species: Rattus norvegicus; assay: Effect on NMDA-induced hyperalgesia in Wistar rat; assay type: functional, organism-based
Rattus norvegicus [14] = species: Rattus norvegicus; assay: Inhibition of rat recombinant cathepsin S-induced hyperalgesia in Wistar rat at 50 ug; assay type: functional, organism-based

SMILES	Activity (Rattus norvegicus [1])	Activity (Rattus norvegicus [2])	Activity (Rattus norvegicus [3])	Activity (Rattus norvegicus [4])	Activity (Rattus norvegicus [5])	Activity (Rattus norvegicus [6])	Activity (Rattus norvegicus [7])	Activity (Rattus norvegicus [8])	Activity (Rattus norvegicus [9])	Activity (Rattus norvegicus [10])	Activity (Rattus norvegicus [11])	Activity (Rattus norvegicus [12])	Activity (Rattus norvegicus [13])	Activity (Rattus norvegicus [14])
CC(C)C[C@@H](NC(=O)N1CCOCC1)C(=O)N[C@@H](/C=C/S(=O)(=O)c1ccccc1)CCc1ccccc1	inactive	Active	Active	Active	Active	inactive	Non-toxic	Active	inactive	Active	inactive	inactive	inactive	
N=C(N)NCCC[C@@H](N)C(=O)N[C@@H](CCCNC(=N)N)C(=O)N1CCC[C@H]1C(=O)N1C[C@H](O)C[C@H]1C(=O)NCC(=O)N[C@@H](Cc1cccs1)C(=O)N[C@@H](CO)C(=O)N1Cc2ccccc2C[C@@H]1C(=O)N1[C@H](C(=O)N[C@@H](CCCNC(=N)N)C(=O)O)C[C@@H]2CCCC[C@@H]21												inactive		inactive
N=C(N)NCCC[C@@H](N)C(=O)N[C@@H](CCCNC(=N)N)C(=O)N1CCC[C@H]1C(=O)N1C[C@H](O)C[C@H]1C(=O)NCC(=O)N[C@@H](Cc1cccs1)C(=O)N[C@@H](CO)C(=O)N1Cc2ccccc2C[C@@H]1C(=O)N1[C@H](C(=O)O)C[C@@H]2CCCC[C@@H]21 (H-[dR]RP[Hyp]G[2Thi]S[dTic][Oic]-OH)												inactive		inactive
